This is an account of results in patent US6867206B1, “6-carboxyphenyldihydropyridazinone derivatives and use thereof” (Bayer Aktiengesellschaft, priority 1999, dated 2005).

In turn, `COc1ccc(CCNC(=O)c2ccc(C3=NNC(=O)CC3C)cc2)cc1` (stereo not shown) [Example 60] returned a melting point of 245 to 246 °C. With `CC1CC(=O)NN=C1c1ccc(C(=O)Nc2ccc3ccccc3c2)cc1` (stereo not shown) [Example 55], the melting point fell in the range of 271 to 272 °C. In turn, `O=C1CCC(c2ccc(C(=O)NC3CC3)cc2)=NN1` [Example 11] registered a melting point of 248 to 250 °C. The figure for `CC(C)COC(=O)c1ccc(C2=NNC(=O)CC2)cc1` [Example 32] is 259 to 260 °C. `O=C1CCC(c2ccc(C(=O)Nc3c(F)cccc3F)cc2)=NN1` [Example 45] had a melting point of 278 to 279 °C. As to `O=C1CCC(c2ccc(C(=O)Nc3c(Cl)cccc3Cl)cc2)=NN1` [Example 8], the melting point was > 250 °C. The figure for `NC(=O)c1ccsc1NC(=O)c1ccc(C2=NNC(=O)CC2)cc1` [Example 47] is > 250 °C; for `O=C1CCC(c2ccc(C(=O)NCc3ccccc3)cc2)=NN1` [Example 7] it is 208 to 209 °C; for `O=C1CCC(c2ccc(C(=O)NCc3ccc(Cl)c(Cl)c3)cc2)=NN1` [Example 30] it is 208 to 209 °C. The figure for `CC(OC(=O)c1ccc(C2=NNC(=O)CC2)cc1)C1CC1` (stereo not shown) [Example 38] is 104 to 105 °C. `CCC(C)OC(=O)c1ccc(C2=NNC(=O)CC2)cc1` (stereo not shown) [Example 33] yielded a melting point of 120 to 122 °C. Take `C=CCOC(=O)c1ccc(C2=NNC(=O)CC2)cc1` [Example 36]: the melting point is 131 to 133 °C. The value for `O=C1CCC(c2ccc(C(=O)NCc3ccco3)cc2)=NN1` [Example 5] was 208 to 210 °C; that for `COc1ccc(CCNC(=O)c2ccc(C3=NNC(=O)CC3C)cc2)cc1OC` (stereo not shown) [Example 63] was 146 to 147 °C; that for `CC(C)CNC(=O)c1ccc(C2=NNC(=O)CC2C)cc1` (stereo not shown) [Example 62] was 166 to 167 °C. Molecule `O=C1CCC(c2ccc(C(=O)OCC3CCC3)cc2)=NN1` [Example 40] displayed a melting point of 155 to 156 °C. As to `COc1cccc(CCNC(=O)c2ccc(C3=NNC(=O)CC3C)cc2)c1` (stereo not shown) [Example 61], the melting point lay in the range of 164 to 165 °C. For the molecule `NC(=O)c1ccccc1NC(=O)c1ccc(C2=NNC(=O)CC2)cc1` [Example 51], the melting point is > 250 °C. The value for `O=C1CCC(c2ccc(C(=O)Nc3cccc(Cl)c3)cc2)=NN1` [Example 22] was > 250 °C.

Turning to `O=C1CCC(c2ccc(C(=O)OC3CCCC3)cc2)=NN1` [Example 35], the melting point lay within 167 to 169 °C. The value for `O=C1CCC(c2ccc(C(=O)N3CCCCC3)cc2)=NN1` [Example 19] was 182 to 184 °C; that for `CCCCNC(=O)c1ccc(C2=NNC(=O)CC2)cc1` [Example 4] was 217 to 218 °C; that for `CC1CC(=O)NN=C1c1ccc(C(=O)N2CCCc3ccccc32)cc1` (stereo not shown) [Example 56] was > 260 °C. Turning to `CC1CC(=O)NN=C1c1ccc(C(=O)Nc2cccnc2)cc1` (stereo not shown) [Example 53], the melting point was in the range of 267 to 268 °C.

Regarding `CCCOC(=O)c1ccc(C2=NNC(=O)CC2)cc1` [Example 31], the melting point was in the range of 283 to 284 °C. The figure for `O=C1CCC(c2ccc(C(=O)Nc3ccccc3)cc2)=NN1` [Example 13] is > 250 °C. In turn, `CCNC(=O)c1ccc(C2=NNC(=O)CC2)cc1` [Example 15] registered a melting point of 228 to 230 °C. Take `CC(C)CCNC(=O)c1ccc(C2=NNC(=O)CC2C)cc1` (stereo not shown) [Example 58]: the melting point is 152 to 153 °C. The value for `O=C1CCC(c2ccc(C(=O)OCc3ccccc3)cc2)=NN1` [Example 41] was 156 to 157 °C; that for `O=C1CCC(c2ccc(C(=O)Nc3ccccc3Cl)cc2)=NN1` [Example 18] was 209 to 210 °C; that for `O=C1CCC(c2ccc(C(=O)NC3CCCCC3)cc2)=NN1` [Example 27] was 249 to 250 °C. For `O=C1CCC(c2ccc(C(=O)NCc3cccnc3)cc2)=NN1` [Example 20], the melting point fell in the range of 220 to 223 °C. For the molecule `O=C1CCC(c2ccc(C(=O)OCCc3ccccc3)cc2)=NN1` [Example 39], the melting point fell in the range of 146 to 148 °C.

As for `Cc1ccc(NC(=O)c2ccc(C3=NNC(=O)CC3)cc2)cc1` [Example 21], the melting point is > 250 °C. The figure for `COC(=O)c1ccc(C2=NNC(=O)CC2)cc1` [Example 6] is 203 to 205 °C; for `CC(NC(=O)c1ccc(C2=NNC(=O)CC2)cc1)c1ccccc1` (stereo not shown) [Example 23] it is 242 to 243 °C. `O=C1CCC(c2ccc(C(=O)NCCc3ccccc3F)cc2)=NN1` [Example 43] returned a melting point of 189 to 190 °C. The figure for `CC1CC(=O)NN=C1c1ccc(C(=O)NCC(c2ccccc2)c2ccccc2)cc1` (stereo not shown) [Example 59] is 186 to 187 °C; for `O=C1CCC(c2ccc(C(=O)N3CCOCC3)cc2)=NN1` [Example 29] it is 202 to 203 °C. The figure for `O=C1CCC(c2ccc(C(=O)NCCc3ccccc3)cc2)=NN1` [Example 10] is 223 to 226 °C. The figure for `O=C1CCC(c2ccc(C(=O)NCCc3cccs3)cc2)=NN1` [Example 44] is 215 to 216 °C; for `CC1CC(=O)NN=C1c1ccc(C(=O)Nc2cccc3ccccc23)cc1` (stereo not shown) [Example 54] it is 266 to 267 °C. Molecule `CC1CC(=O)NN=C1c1ccc(C(=O)NC2CC2)cc1` (stereo not shown) [Example 57] had a melting point of 216 to 217 °C. `O=C1CCC(c2ccc(C(=O)NCc3ccccc3F)cc2)=NN1` [Example 49] came in with a melting point of 186 to 187 °C.

The molecule `O=C1CCC(c2ccc(C(=O)N3CCCc4ccccc43)cc2)=NN1` [Example 25] showed a melting point of 215 to 216 °C.

`CN(CCOC(=O)c1ccc(C2=NNC(=O)CC2)cc1)Cc1ccccc1` [Example 37] yielded a melting point of 90 to 91 °C. The value for `CC(C)OC(=O)c1ccc(C2=NNC(=O)CC2)cc1` [Example 9] was 155 to 156 °C; that for `CNC(=O)c1ccc(C2=NNC(=O)CC2)cc1` [Example 14] was 233 to 234 °C.

Molecule `CN(C(=O)c1ccc(C2=NNC(=O)CC2)cc1)c1ccccc1` [Example 42] had a melting point of 208 to 209 °C. The value for `O=C1CCC(c2ccc(C(=O)NCc3cccc4ccccc34)cc2)=NN1` [Example 16] was 258 to 260 °C; that for `O=C1CCC(c2ccc(C(=O)OCC3CC3)cc2)=NN1` [Example 34] was 158 to 159 °C. Take `COC(=O)c1ccc(NC(=O)c2ccc(C3=NNC(=O)CC3)cc2)o1` [Example 24]: the melting point is > 260 °C. In the case of `O=C1CCC(c2ccc(C(=O)NCc3ccccn3)cc2)=NN1` [Example 17], the melting point lay within 228 to 230 °C. In turn, `CCOC(=O)c1ccc(C2=NNC(=O)CC2)cc1` [Example 12] yielded a melting point of 157 to 159 °C.

In turn, `O=C1CCC(c2ccc(C(=O)Nc3cccc(C(F)(F)F)c3)cc2)=NN1` [Example 28] came in with a melting point of 229 to 230 °C.
